{"source": "patent US8192962B2", "about": "“Processes for detecting toxic substances” (Daikin Industries, Ltd., priority 2001, dated 2012)", "system": "DNA repair protein genes", "assay": "DNA chip mRNA expression in yeast, DNA repair protein genes (Table 3)", "assay_type": "cell-based, Saccharomyces cerevisiae S288C", "conditions": "incubated two hours, concentrations as in the 1st table", "outline": "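Measured as treated-to-untreated fluorescence ratio on a full-genome yeast DNA chip. Cells (S288C, YPD, 25° C.) were exposed in log phase for two hours to one chemical, dosed to curb growth without killing.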"}
{"substance": "manganese ethylenebis(dithiocarbamate) [(8)]", "values": [{"measurement": "The level of expressed mRNA in the presence of chemical substance/The level of expressed mRNA in the absence of chemical substance", "setting": "yeast gene YAL015C", "value": 1.1}, {"measurement": "The level of expressed mRNA in the presence of chemical substance/The level of expressed mRNA in the absence of chemical substance", "setting": "yeast gene YAR007C", "value": 1.1}, {"measurement": "The level of expressed mRNA in the presence of chemical substance/The level of expressed mRNA in the absence of chemical substance", "setting": "yeast gene YBL019W", "value": 1.2}, {"measurement": "The level of expressed mRNA in the presence of chemical substance/The level of expressed mRNA in the absence of chemical substance", "setting": "yeast gene YBR073W", "value": 1.1}, {"measurement": "The level of expressed mRNA in the presence of chemical substance/The level of expressed mRNA in the absence of chemical substance", "setting": "yeast gene YBR272C", "value": 1.1}, {"measurement": "The level of expressed mRNA in the presence of chemical substance/The level of expressed mRNA in the absence of chemical substance", "setting": "yeast gene YCR014C", "value": 1.0}, {"measurement": "The level of expressed mRNA in the presence of chemical substance/The level of expressed mRNA in the absence of chemical substance", "setting": "yeast gene YDL017W", "value": 1.2}, {"measurement": "The level of expressed mRNA in the presence of chemical substance/The level of expressed mRNA in the absence of chemical substance", "setting": "yeast gene YDL059C", "value": 1.2}, {"measurement": "The level of expressed mRNA in the presence of chemical substance/The level of expressed mRNA in the absence of chemical substance", "setting": "yeast gene YDL200C", "value": 1.5}, {"measurement": "The level of expressed mRNA in the presence of chemical substance/The level of expressed mRNA in the absence of chemical substance", "setting": "yeast gene YDR054C", "value": 1.5}, {"measurement": "The level of expressed mRNA in the presence of chemical substance/The level of expressed mRNA in the absence of chemical substance", "setting": "yeast gene YDR369C", "value": 1.0}, {"measurement": "The level of expressed mRNA in the presence of chemical substance/The level of expressed mRNA in the absence of chemical substance", "setting": "yeast gene YEL019C", "value": 0.9}, {"measurement": "The level of expressed mRNA in the presence of chemical substance/The level of expressed mRNA in the absence of chemical substance", "setting": "yeast gene YEL037C", "value": 0.8}, {"measurement": "The level of expressed mRNA in the presence of chemical substance/The level of expressed mRNA in the absence of chemical substance", "setting": "yeast gene YER162C", "value": 0.9}, {"measurement": "The level of expressed mRNA in the presence of chemical substance/The level of expressed mRNA in the absence of chemical substance", "setting": "yeast gene YFL014W", "value": 3.4}, {"measurement": "The level of expressed mRNA in the presence of chemical substance/The level of expressed mRNA in the absence of chemical substance", "setting": "yeast gene YGL058W", "value": 1.3}, {"measurement": "The level of expressed mRNA in the presence of chemical substance/The level of expressed mRNA in the absence of chemical substance", "setting": "yeast gene YGL091C", "value": 1.8}, {"measurement": "The level of expressed mRNA in the presence of chemical substance/The level of expressed mRNA in the absence of chemical substance", "setting": "yeast gene YGL127C", "value": 0.9}, {"measurement": "The level of expressed mRNA in the presence of chemical substance/The level of expressed mRNA in the absence of chemical substance", "setting": "yeast gene YGL163C", "value": 1.4}, {"measurement": "The level of expressed mRNA in the presence of chemical substance/The level of expressed mRNA in the absence of chemical substance", "setting": "yeast gene YGL249W", "value": 0.9}, {"measurement": "The level of expressed mRNA in the presence of chemical substance/The level of expressed mRNA in the absence of chemical substance", "setting": "yeast gene YGR180C", "value": 1.0}, {"measurement": "The level of expressed mRNA in the presence of chemical substance/The level of expressed mRNA in the absence of chemical substance", "setting": "yeast gene YGR231C", "value": 1.1}, {"measurement": "The level of expressed mRNA in the presence of chemical substance/The level of expressed mRNA in the absence of chemical substance", "setting": "yeast gene YGR258C", "value": 0.8}, {"measurement": "The level of expressed mRNA in the presence of chemical substance/The level of expressed mRNA in the absence of chemical substance", "setting": "yeast gene YHR164C", "value": 1.1}, {"measurement": "The level of expressed mRNA in the presence of chemical substance/The level of expressed mRNA in the absence of chemical substance", "setting": "yeast gene YIL036W", "value": 1.1}, {"measurement": "The level of expressed mRNA in the presence of chemical substance/The level of expressed mRNA in the absence of chemical substance", "setting": "yeast gene YIL072W", "value": 1.4}, {"measurement": "The level of expressed mRNA in the presence of chemical substance/The level of expressed mRNA in the absence of chemical substance", "setting": "yeast gene YIL143C", "value": 0.9}, {"measurement": "The level of expressed mRNA in the presence of chemical substance/The level of expressed mRNA in the absence of chemical substance", "setting": "yeast gene YIL153W", "value": 0.5}, {"measurement": "The level of expressed mRNA in the presence of chemical substance/The level of expressed mRNA in the absence of chemical substance", "setting": "yeast gene YIR002C", "value": 1.2}, {"measurement": "The level of expressed mRNA in the presence of chemical substance/The level of expressed mRNA in the absence of chemical substance", "setting": "yeast gene YJL026W", "value": 1.2}, {"measurement": "The level of expressed mRNA in the presence of chemical substance/The level of expressed mRNA in the absence of chemical substance", "setting": "yeast gene YJR046W", "value": 0.9}, {"measurement": "The level of expressed mRNA in the presence of chemical substance/The level of expressed mRNA in the absence of chemical substance", "setting": "yeast gene YJR052W", "value": 1.7}, {"measurement": "The level of expressed mRNA in the presence of chemical substance/The level of expressed mRNA in the absence of chemical substance", "setting": "yeast gene YKL145W", "value": 1.5}, {"measurement": "The level of expressed mRNA in the presence of chemical substance/The level of expressed mRNA in the absence of chemical substance", "setting": "yeast gene YLR103C", "value": 1.4}, {"measurement": "The level of expressed mRNA in the presence of chemical substance/The level of expressed mRNA in the absence of chemical substance", "setting": "yeast gene YLR233C", "value": 1.1}, {"measurement": "The level of expressed mRNA in the presence of chemical substance/The level of expressed mRNA in the absence of chemical substance", "setting": "yeast gene YLR288C", "value": 1.5}, {"measurement": "The level of expressed mRNA in the presence of chemical substance/The level of expressed mRNA in the absence of chemical substance", "setting": "yeast gene YML032C", "value": 0.9}, {"measurement": "The level of expressed mRNA in the presence of chemical substance/The level of expressed mRNA in the absence of chemical substance", "setting": "yeast gene YML058W", "value": 0.7}, {"measurement": "The level of expressed mRNA in the presence of chemical substance/The level of expressed mRNA in the absence of chemical substance", "setting": "yeast gene YMR035W", "value": 1.4}, {"measurement": "The level of expressed mRNA in the presence of chemical substance/The level of expressed mRNA in the absence of chemical substance", "setting": "yeast gene YMR072W", "value": 1.0}, {"measurement": "The level of expressed mRNA in the presence of chemical substance/The level of expressed mRNA in the absence of chemical substance", "setting": "yeast gene YMR096W", "value": 2.0}, {"measurement": "The level of expressed mRNA in the presence of chemical substance/The level of expressed mRNA in the absence of chemical substance", "setting": "yeast gene YMR284W", "value": 1.1}, {"measurement": "The level of expressed mRNA in the presence of chemical substance/The level of expressed mRNA in the absence of chemical substance", "setting": "yeast gene YNL213C", "value": 1.8}, {"measurement": "The level of expressed mRNA in the presence of chemical substance/The level of expressed mRNA in the absence of chemical substance", "setting": "yeast gene YNL250W", "value": 1.3}, {"measurement": "The level of expressed mRNA in the presence of chemical substance/The level of expressed mRNA in the absence of chemical substance", "setting": "yeast gene YNL261W", "value": 1.1}, {"measurement": "The level of expressed mRNA in the presence of chemical substance/The level of expressed mRNA in the absence of chemical substance", "setting": "yeast gene YNL312W", "value": 1.2}, {"measurement": "The level of expressed mRNA in the presence of chemical substance/The level of expressed mRNA in the absence of chemical substance", "setting": "yeast gene YOL043C", "value": 0.9}, {"measurement": "The level of expressed mRNA in the presence of chemical substance/The level of expressed mRNA in the absence of chemical substance", "setting": "yeast gene YOR005C", "value": 1.3}, {"measurement": "The level of expressed mRNA in the presence of chemical substance/The level of expressed mRNA in the absence of chemical substance", "setting": "yeast gene YOR386W", "value": 1.0}, {"measurement": "The level of expressed mRNA in the presence of chemical substance/The level of expressed mRNA in the absence of chemical substance", "setting": "yeast gene YPL022W", "value": 1.0}, {"measurement": "The level of expressed mRNA in the presence of chemical substance/The level of expressed mRNA in the absence of chemical substance", "setting": "yeast gene YPL164C", "value": 1.0}, {"measurement": "The level of expressed mRNA in the presence of chemical substance/The level of expressed mRNA in the absence of chemical substance", "setting": "yeast gene YPL194W", "value": 1.3}, {"measurement": "The level of expressed mRNA in the presence of chemical substance/The level of expressed mRNA in the absence of chemical substance", "setting": "yeast gene YPR025C", "value": 1.3}]}
